Test results: the supplement of paper PMC10627819

Experiments:
B. subtilis 168 [1] = assay: Bliss interaction score (quartile over a dose matrix) (fitness difference); higher = more antagonism (negative = synergy)
Method in brief: (§1)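 Fitness was defined as normalised growth: OD595 at the start of stationary phase divided by the plate's robust no-drug mean and capped at 1. Single-drug fitness was inferred from combination measurements. The Bliss score is observed fitness minus the product of the single-drug values, summarised by quartiles across technical, biological and donor/recipient replicates.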

S. aureus DSM 20231 [2] = assay: as above
Method in brief: as §1

S. pneumoniae D39V [3] = assay: as above
Method in brief: as §1

S. aureus Newman [4] = assay: as above
Method in brief: as §1

B. subtilis 168 [5] = assay: fitness (endpoint OD595 vs no drug) (fraction); higher = more growth
Method in brief: (§2)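 Fitness is computed from the optical density at which cultures reach stationary phase, divided by the robust mean of no-drug control wells. Any value above 1 is set to 1. Cultures started at OD595 0.01 in 384-well plates with TSB, LB Lennox or CY at 37 °C, and OD595 was read every 30 min for 14 h against a first-reading background.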

S. aureus DSM 20231 [6] = assay: as above
Method in brief: as §2

S. aureus Newman [7] = assay: as above
Method in brief: as §2

S. pneumoniae D39V [8] = assay: as above
Method in brief: as §2
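For Bliss interaction score (quartile over a dose matrix) in this document: first quartile when negative (synergy) and third quartile when positive (antagonism).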
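For fitness (endpoint OD595 vs no drug) in this document: OD595 on entry to stationary phase over no-drug wells; at most 1.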

CC[C@H]1OC(=O)[C@H](C)[C@@H](O[C@H]2C[C@@](C)(OC)[C@@H](O)[C@H](C)O2)[C@H](C)[C@@H](O[C@@H]2O[C@H](C)C[C@H](N(C)C)[C@H]2O)[C@](C)(O)C[C@@H](C)CN(C)[C@H](C)[C@@H](O)[C@]1(C)O [Azithromycin] + CC1=C\[C@@H](O)CC(=O)Cc2nc(co2)C(=O)N2CCC=C2C(=O)O[C@H](C(C)C)[C@H](C)/C=C/C(=O)NC\C=C\1 [Virginiamycin M1]
Settings | Bliss interaction score
B. subtilis 168 [1] | 0.0627
S. aureus DSM 20231 [2] | -0.0726
S. aureus Newman [4] | 0.0851
S. pneumoniae D39V [3] | 0.0642

fitness
Settings | partner 0.0625 µg/mL | partner 0.125 µg/mL | partner 0.25 µg/mL
B. subtilis 168 [5], first compound 0.25 µg/mL | 0.911 | 0.876 | 0.97
B. subtilis 168 [5], first compound 0.5 µg/mL | 0.803 | 0.814 | 0.869
S. aureus DSM 20231 [6], first compound 0.125 µg/mL | 0.817 | 0.872 | 0.894
S. aureus DSM 20231 [6], first compound 0.25 µg/mL | 0.77 | 0.873 | 0.854
S. aureus DSM 20231 [6], first compound 0.5 µg/mL | 0.515 | 0.362 | –
S. aureus Newman [7], first compound 0.125 µg/mL | 0.912 | 0.904 | 0.912
S. aureus Newman [7], first compound 0.25 µg/mL | 0.935 | 0.913 | 0.92
S. aureus Newman [7], first compound 0.5 µg/mL | 0.744 | 0.707 | 0.722

fitness, one replicate
Settings | first compound 0.125 µg/mL | first compound 0.25 µg/mL | first compound 0.5 µg/mL
S. aureus DSM 20231 [6], partner 0.5 µg/mL | 0.981 | 0.86 | 0.728
S. aureus DSM 20231 [6], partner 1 µg/mL | 0.791 | 0.798 | 0.505
S. aureus Newman [7], partner 0.5 µg/mL | 0.937 | 0.9 | 0.859
S. aureus Newman [7], partner 1 µg/mL | ≥ 1 | ≥ 1 | 0.89
S. aureus Newman [7], partner 2 µg/mL | 0.904 | 0.907 | 0.764

Cc1onc(-c2ccccc2)c1C(=O)N[C@@H]1C(=O)N2[C@@H]1SC(C)(C)[C@@H]2C(=O)O [Oxacillin] + CN[C@H](CC(C)C)C(=O)N[C@H]1C(=O)N[C@@H](CC(N)=O)C(=O)N[C@H]2C(=O)N[C@H]3C(=O)N[C@H](C(=O)N[C@H](C(=O)O)c4cc(O)cc(O)c4-c4cc3ccc4O)[C@H](O)c3ccc(c(Cl)c3)Oc3cc2cc(c3O[C@@H]2O[C@H](CO)[C@@H](O)[C@H](O)[C@H]2O[C@H]2C[C@](C)(N)[C@H](O)[C@H](C)O2)Oc2ccc(cc2Cl)[C@H]1O [Vancomycin]
Settings | Bliss interaction score
B. subtilis 168 [1] | -0.0574
S. aureus DSM 20231 [2] | -0.0751
S. aureus Newman [4] | -0.0696
S. pneumoniae D39V [3] | -0.302

Settings | fitness
S. aureus DSM 20231 [6], first compound 0.0156 µg/mL, partner 0.1875 µg/mL | 0.776
S. aureus DSM 20231 [6], first compound 0.0156 µg/mL, partner 0.375 µg/mL | 0.867
S. aureus DSM 20231 [6], first compound 0.0156 µg/mL, partner 0.75 µg/mL | 0.81
S. aureus DSM 20231 [6], first compound 0.0312 µg/mL, partner 0.1875 µg/mL | 0.641
S. aureus DSM 20231 [6], first compound 0.0312 µg/mL, partner 0.375 µg/mL | 0.73
S. aureus DSM 20231 [6], first compound 0.0312 µg/mL, partner 0.75 µg/mL | 0.679
S. aureus DSM 20231 [6], first compound 0.0625 µg/mL, partner 0.1875 µg/mL | 0.519
S. aureus DSM 20231 [6], first compound 0.0625 µg/mL, partner 0.375 µg/mL | 0.516
S. aureus DSM 20231 [6], first compound 0.0625 µg/mL, partner 0.75 µg/mL | 0.564
S. aureus Newman [7], first compound 0.0156 µg/mL, partner 0.1875 µg/mL | 0.785
S. aureus Newman [7], first compound 0.0156 µg/mL, partner 0.375 µg/mL | 0.756
S. aureus Newman [7], first compound 0.0312 µg/mL, partner 0.1875 µg/mL | 0.715
S. aureus Newman [7], first compound 0.0312 µg/mL, partner 0.375 µg/mL | 0.724
S. aureus Newman [7], first compound 0.0312 µg/mL, partner 0.75 µg/mL | 0.712
S. aureus Newman [7], first compound 0.0625 µg/mL, partner 0.1875 µg/mL | 0.652
S. aureus Newman [7], first compound 0.0625 µg/mL, partner 0.375 µg/mL | 0.637
S. pneumoniae D39V [8], first compound 0.01 µg/mL, partner 0.03125 µg/mL | 0.988
S. pneumoniae D39V [8], first compound 0.01 µg/mL, partner 0.0625 µg/mL | 0.906
S. pneumoniae D39V [8], first compound 0.01 µg/mL, partner 0.25 µg/mL | 0.243
S. pneumoniae D39V [8], first compound 0.01 µg/mL, partner 0.5 µg/mL | 0.0401
S. pneumoniae D39V [8], first compound 0.02 µg/mL, partner 0.03125 µg/mL | 0.859
S. pneumoniae D39V [8], first compound 0.02 µg/mL, partner 0.0625 µg/mL | 0.734
S. pneumoniae D39V [8], first compound 0.02 µg/mL, partner 0.25 µg/mL | 0.149
S. pneumoniae D39V [8], first compound 0.02 µg/mL, partner 0.5 µg/mL | 0.0421
S. pneumoniae D39V [8], first compound 0.04 µg/mL, partner 0.03125 µg/mL | 0.271
S. pneumoniae D39V [8], first compound 0.04 µg/mL, partner 0.0625 µg/mL | 0.18
S. pneumoniae D39V [8], first compound 0.04 µg/mL, partner 0.125 µg/mL | 0.108
S. pneumoniae D39V [8], first compound 0.04 µg/mL, partner 0.25 µg/mL | 0.101
S. pneumoniae D39V [8], first compound 0.04 µg/mL, partner 0.5 µg/mL | 0.056

Cc1onc(-c2ccccc2)c1C(=O)N[C@@H]1C(=O)N2[C@@H]1SC(C)(C)[C@@H]2C(=O)O [Oxacillin] + Cn1nnc(-c2ccc(-c3ccc(N4C[C@H](CO)OC4=O)cc3F)cn2)n1 [Tedizolid]
Settings | Bliss interaction score
B. subtilis 168 [1] | -0.0469
S. aureus DSM 20231 [2] | 0.0921
S. aureus Newman [4] | -0.0682
S. pneumoniae D39V [3] | 0.0979

fitness
Settings | partner 0.03125 µg/mL | partner 0.0625 µg/mL | partner 0.125 µg/mL | partner 0.25 µg/mL | partner 0.5 µg/mL
S. aureus DSM 20231 [6], first compound 0.0156 µg/mL | – | 0.791 | 0.731 | 0.312 | –
S. aureus DSM 20231 [6], first compound 0.0312 µg/mL | – | 0.687 | 0.593 | 0.279 | –
S. aureus DSM 20231 [6], first compound 0.0625 µg/mL | – | 0.51 | 0.503 | 0.261 | –
S. aureus Newman [7], first compound 0.0156 µg/mL | – | 0.746 | 0.673 | 0.425 | –
S. aureus Newman [7], first compound 0.0312 µg/mL | – | 0.693 | 0.579 | 0.24 | –
S. aureus Newman [7], first compound 0.0625 µg/mL | – | 0.562 | 0.481 | 0.159 | –
S. pneumoniae D39V [8], first compound 0.01 µg/mL | 0.974 | 0.931 | 0.851 | 0.683 | 0.336
S. pneumoniae D39V [8], first compound 0.02 µg/mL | 0.935 | 0.933 | 0.835 | 0.644 | 0.39
S. pneumoniae D39V [8], first compound 0.04 µg/mL | – | 0.728 | 0.614 | 0.468 | 0.157
